From ChEMBL document CHEMBL1212758 (Antimicrob Agents Chemother, 2010)

Assays:
Format in all cases: functional
[1] = tested on: Macacine alphaherpesvirus 1; assay: Ratio of acyclovir EC50 to compound EC50 for Macacine herpesvirus 1 isolate MR2 infected in african green monkey Vero cells
[2] = tested on: Macacine alphaherpesvirus 1; assay: Ratio of acyclovir EC50 to compound EC50 for Macacine herpesvirus 1 isolate MJ1 infected in african green monkey Vero cells
[3] = tested on: Macacine alphaherpesvirus 1; assay: Ratio of acyclovir EC50 to compound EC50 for Macacine herpesvirus 1 isolate A2 infected in african green monkey Vero cells
[4] = tested on: Macacine alphaherpesvirus 1; assay: Ratio of acyclovir EC50 to compound EC50 for Macacine herpesvirus 1 isolate MR3 infected in african green monkey Vero cells
[5] = tested on: Macacine alphaherpesvirus 1; assay: Ratio of acyclovir EC50 to compound EC50 for Macacine herpesvirus 1 isolate MR8 infected in african green monkey Vero cells
[6] = tested on: Macacine alphaherpesvirus 1; assay: Ratio of acyclovir EC50 to compound EC50 for Macacine herpesvirus 1 isolate A3 infected in african green monkey Vero cells
[7] = tested on: Macacine alphaherpesvirus 1; assay: Ratio of acyclovir EC50 to compound EC50 for Macacine herpesvirus 1 isolate MR11 infected in african green monkey Vero cells
[8] = tested on: Macacine alphaherpesvirus 1; assay: Ratio of acyclovir EC50 to compound EC50 for Macacine herpesvirus 1 isolate MR1 infected in african green monkey Vero cells
[9] = tested on: Macacine alphaherpesvirus 1; assay: Ratio of acyclovir EC50 to compound EC50 for Macacine herpesvirus 1 isolate A6 infected in african green monkey Vero cells
[10] = tested on: Macacine alphaherpesvirus 1; assay: Ratio of acyclovir EC50 to compound EC50 for Macacine herpesvirus 1 isolate MR9 infected in african green monkey Vero cells
[11] = tested on: Macacine alphaherpesvirus 1; assay: Ratio of acyclovir EC50 to compound EC50 for Macacine herpesvirus 1 isolate MP1 infected in african green monkey Vero cells
[12] = tested on: Macacine alphaherpesvirus 1; assay: Ratio of acyclovir EC50 to compound EC50 for Macacine herpesvirus 1 isolate MR7 infected in african green monkey Vero cells
Human alphaherpesvirus 2 = assay: Ratio of acyclovir EC50 to compound EC50 for HSV 2 infected in african green monkey Vero cells
[13] = tested on: Macacine alphaherpesvirus 1; assay: Ratio of acyclovir EC50 to compound EC50 for Macacine herpesvirus 1 isolate MR10 infected in african green monkey Vero cells
Human alphaherpesvirus 1 = assay: Ratio of acyclovir EC50 to compound EC50 for HSV1 infected in african green monkey Vero cells
[14] = tested on: Macacine alphaherpesvirus 1; assay: Ratio of acyclovir EC50 to compound EC50 for Macacine herpesvirus 1 isolate MR6 infected in african green monkey Vero cells
[15] = tested on: Macacine alphaherpesvirus 1; assay: Ratio of acyclovir EC50 to compound EC50 for Macacine herpesvirus 1 isolate MJ3 infected in african green monkey Vero cells
[16] = tested on: Macacine alphaherpesvirus 1; assay: Ratio of acyclovir EC50 to compound EC50 for Macacine herpesvirus 1 isolate MC2 infected in african green monkey Vero cells
[17] = tested on: Macacine alphaherpesvirus 1; assay: Ratio of acyclovir EC50 to compound EC50 for Macacine herpesvirus 1 isolate E2490 infected in african green monkey Vero cells
[18] = tested on: Macacine alphaherpesvirus 1; assay: Ratio of acyclovir EC50 to compound EC50 for Macacine herpesvirus 1 isolate MJ2 infected in african green monkey Vero cells
[19] = tested on: Macacine alphaherpesvirus 1; assay: Ratio of acyclovir EC50 to compound EC50 for Macacine herpesvirus 1 isolate A1 infected in african green monkey Vero cells
[20] = tested on: Macacine alphaherpesvirus 1; assay: Ratio of acyclovir EC50 to compound EC50 for Macacine herpesvirus 1 isolate MR5 infected in african green monkey Vero cells
[21] = tested on: Macacine alphaherpesvirus 1; assay: Ratio of acyclovir EC50 to compound EC50 for Macacine herpesvirus 1 isolate A4 infected in african green monkey Vero cells
[22] = tested on: Macacine alphaherpesvirus 1; assay: Ratio of acyclovir EC50 to compound EC50 for Macacine herpesvirus 1 isolate A5 infected in african green monkey Vero cells
[23] = tested on: Macacine alphaherpesvirus 1; assay: Ratio of acyclovir EC50 to compound EC50 for Macacine herpesvirus 1 isolate MR4 infected in african green monkey Vero cells
[24] = tested on: Macacine alphaherpesvirus 1; assay: Ratio of acyclovir EC50 to compound EC50 for Macacine herpesvirus 1 isolate MC1 infected in african green monkey Vero cells

| Compound | Ratio EC50 [1] | Ratio EC50 [2] | Ratio EC50 [3] | Ratio EC50 [4] | Ratio EC50 [5] | Ratio EC50 [6] | Ratio EC50 [7] | Ratio EC50 [8] | Ratio EC50 [9] | Ratio EC50 [10] | Ratio EC50 [11] | Ratio EC50 [12] | Ratio EC50 (Human alphaherpesvirus 2) | Ratio EC50 [13] | Ratio EC50 (Human alphaherpesvirus 1) | Ratio EC50 [14] | Ratio EC50 [15] | Ratio EC50 [16] | Ratio EC50 [17] | Ratio EC50 [18] | further results |
| --- | --- | --- | --- | --- | --- | --- | --- | --- | --- | --- | --- | --- | --- | --- | --- | --- | --- | --- | --- | --- | --- |
| Nc1nc(=O)n([C@@H]2O[C@H](CO)[C@@H](O)[C@@H]2F)cc1Br | 10 | 10 | 10 | 10 | 10 | 10 | 10 | 10 | 10 | 10 | 10 | 10 | 10 | 10 | 10 | 10 | 10 | 10 | 10 | 10 | Ratio EC50 [19]: 10; Ratio EC50 [20]: 10; Ratio EC50 [21]: 10; Ratio EC50 [22]: 10; Ratio EC50 [23]: 10; Ratio EC50 [24]: 10 |
| Cc1cn([C@@H]2O[C@H](CO)[C@@H](O)[C@@H]2F)c(=O)nc1N | 10 | 10 | 10 | 10 | 10 | 10 | 10 | 10 | 10 | 10 | 10 | 10 | 10 | 10 | 10 | 10 | 10 | 10 | 10 | 10 | Ratio EC50 [19]: 10; Ratio EC50 [20]: 10; Ratio EC50 [21]: 10; Ratio EC50 [22]: 10; Ratio EC50 [23]: 10; Ratio EC50 [24]: 10 |
| CCc1cn([C@H]2O[C@@H](CO)[C@H](O)[C@H]2F)c(=O)[nH]c1=O (single isomer, unassigned) | 100 | 100 | 100 | 100 | 100 | 100 | 100 | 100 | 100 | 100 | 100 | 100 | 100 | 100 | 100 | 100 | 100 | 100 | 100 | 100 | Ratio EC50 [19]: 100; Ratio EC50 [20]: 100; Ratio EC50 [21]: 100; Ratio EC50 [22]: 100; Ratio EC50 [23]: 100; Ratio EC50 [24]: 100 |
